From patent US5298494A, “Monosaccharides having anti-proliferation and anti-inflammatory activity, compositions and uses thereof” (Greenwich Pharmaceuticals Incorporated, priority 1993, dated 1994)
Like-named read-outs stand apart in the source and are kept apart here.

Columns and labels:
[1] = tested on: T lymphocytes (normal mouse spleen cells) stimulated with ConA; assay: Mouse Spleen Cell ConA Blastogenesis Assay; assay type: cell-based, mouse (C57Bl/6); conditions: Mus musculus, T-lymphocyte; for inhibition at 0.1 µg/mL: compound 0.1 ug/ml; for inhibition at 1 µg/mL: compound 1 ug/ml; for inhibition at 2.5 µg/mL: compound 2.5 ug/ml; for inhibition at 10 µg/mL: compound 10 ug/ml; for inhibition at 25 µg/mL: compound 25 ug/ml; for inhibition at 100 µg/mL: compound 100 ug/ml
[2] = tested on: Interleukin 1 (IL-1) production by peritoneal macrophages; assay: IL-1 Assay: production of interleukin-1 by peritoneal macrophages (thymocyte bioassay); assay type: cell-based, mouse (C57B1/6); design: inhibition: dose or concentration left out as unconfirmed
Source text: Interleukin 1 (IL-1) is a potent immunomodulatory cytokine that has a broad range of pro-inflammatory activities. IL-1 is known to be produced by activated accessory cells such as macrophages. Accessory cell production of IL-1 results in the activation and proliferation of T and B lymphocytes. Therefore, by inhibiting macrophage activation and production of IL-1, the activation and proliferation of the cellular effectors of inflammation can be modulated. Compounds of the invention were screened for inhibitory activity in a classical IL-1 assay. Six to 8 week old male C57B1/6 mice were purchased from Harlan Sprague Dawley. Peritoneal macrophages were elicited by the administration to mice of a single intraperitoneal injection of 0.2 ml of complete Freund's adjuvant. After 48 hours, elicited macrophages were removed from the mice by lavage with the use of Hank's balanced salt solution. […] To the macrophage cultures were added various doses of the compounds of the invention and 10 ug/ml of the macrophage activator lipopolysaccharide (to stimulate IL-1 production). Control cultures consisted of macrophages, lipopolysaccharide and culture medium containing various doses of DMSO only. […] The amount of IL-1 produced in the individual wells was determined in a bioassay for IL-1. This involved the removal of thymuses from mice less than 8 weeks of age. Thymocytes were isolated by passing each thymus through a stainless steel mesh screen. […] After 18 hours cells were harvested and radioactive incorporation (as a measure of cell proliferation) was quantitated in a liquid scintillation counter. The students t test was used to determine the significance of the difference between experimental and control values.

[3] = ConA 1 ug/ml, read-out: % change from control, ConA blastogenic response
[4] = ConA 4 ug/ml, read-out: % change from control, ConA blastogenic response

## CCCCCC#CCOC[C@H]1O[C@@]2(OC)COC(C)(C)O[C@H]2[C@@H]1OCC#CCCCCC [Id, methyl 1,3-O-isopropylidene-4,6-di-O-(2-octynyl)-α-D-fructofuranoside]
[1]; ConA 1 ug/ml, 0.01 ug/ml, read-out: % Change from Control (Table II)
  inhibition at 0.01 µg/mL: 9%
[1]; ConA 1 ug/ml, compound 0.01 ug/ml, read-out: % change from control, ConA blastogenic response
  inhibition at 0.01 µg/mL: 10%
[1]; [3]
  inhibition at 0.1 µg/mL: 25%
  inhibition at 1 µg/mL: 67%
  inhibition at 2.5 µg/mL: 91%
  inhibition at 10 µg/mL: 100%
  inhibition at 25 µg/mL: 100%
  inhibition at 100 µg/mL: 99%
[1]; ConA 4 ug/ml, 0.01 ug/ml, read-out: % Change from Control (Table II)
  inhibition at 0.01 µg/mL: 16%
[1]; ConA 4 ug/ml, compound 0.01 ug/ml, read-out: % change from control, ConA blastogenic response
  inhibition at 0.01 µg/mL: 14%
[1]; [4]
  inhibition at 0.1 µg/mL: 27%
  inhibition at 1 µg/mL: 75%
  inhibition at 2.5 µg/mL: 94%
  inhibition at 10 µg/mL: 100%
  inhibition at 25 µg/mL: 100%
  inhibition at 100 µg/mL: 99%
[2]; 0.001 ug/ml
  ^3 H-Thymidine uptake by thymocytes: 10,850 ± 995 cpm
[2]; 0.01 ug/ml
  ^3 H-Thymidine uptake by thymocytes: 13,080 cpm
[2]; 0.1 ug/ml
  ^3 H-Thymidine uptake by thymocytes: 13,190 ± 560 cpm
[2]; 1 ug/ml
  ^3 H-Thymidine uptake by thymocytes: 9,880 ± 1,029 cpm
[2]; 2.5 ug/ml
  ^3 H-Thymidine uptake by thymocytes: 6,400 ± 1,070 cpm
[2]; 10 ug/ml
  ^3 H-Thymidine uptake by thymocytes: 3,050 ± 191 cpm
[2]; 25 ug/ml
  ^3 H-Thymidine uptake by thymocytes: 2,537 ± 182 cpm
[2]; 100 ug/ml
  ^3 H-Thymidine uptake by thymocytes: 1,930 cpm
[2]; Mus musculus, Peritoneal macrophage, 0.001 ug/ml, read-out: % effect on IL-1 production (thymidine uptake by thymocytes)
  inhibition at 0.001 µg/mL: 0%
[2]; Mus musculus, Peritoneal macrophage, 0.01 ug/ml, read-out: % effect on IL-1 production (thymidine uptake by thymocytes)
  inhibition at 0.01 µg/mL: -20%
[2]; Mus musculus, Peritoneal macrophage, 0.1 ug/ml, read-out: % effect on IL-1 production (thymidine uptake by thymocytes)
  inhibition at 0.1 µg/mL: -19%
[2]; Mus musculus, Peritoneal macrophage, 2.5 ug/ml, read-out: % effect on IL-1 production (thymidine uptake by thymocytes)
  inhibition at 2.5 µg/mL: 44%
[2]; Mus musculus, Peritoneal macrophage, 10 ug/ml, read-out: % effect on IL-1 production (thymidine uptake by thymocytes)
  inhibition at 10 µg/mL: 70%
[2]; Mus musculus, Peritoneal macrophage, 25 ug/ml, read-out: % effect on IL-1 production (thymidine uptake by thymocytes)
  inhibition at 25 µg/mL: 71%
[2]; Mus musculus, Peritoneal macrophage, 100 ug/ml, read-out: % effect on IL-1 production (thymidine uptake by thymocytes)
  inhibition at 100 µg/mL: 78%
[2]; Mus musculus, Peritoneal macrophage, read-out: % effect on IL-1 production (thymidine uptake by thymocytes)
  inhibition: 10%
